According to patent US20050112573A1, “Method of detecting toxic substance” (priority 2001, published 2005):

Tested on: yeast genes (level of expressed mRNA)
Assay: DNA chip analysis of expressed mRNA of yeast genes after 2 h culture with a toxic chemical substance
Type: cell-based, Saccharomyces cerevisiae S288C
Description: Yeast (Saccharomyces cerevtisiae S288C (α SUC2mal mel gap2 CUP1)) were cultured at 25° C. on YPD medium (yeast extract 1%, polypepton 2%, glucose 2%). One of toxic chemical substances was added to the cell at logarithmic growth phase, and the cell was further cultured for two hours. Cell was cultured without any chemical substance in the same condition, and was used as control. Concentrations of the chemical substances were defined to inhibit the growth of the yeast but not lead to death.
After the completion of cultivation, the culture was centrifuged to collect the cells. To the cells, sodium acetate buffer (50 mM sodium acetate, 10 mM EDTA, 1% SDS) was added, and the mixture was shaken at 65° C. for five minutes, followed by returning to room temperature, and obtaining the supernatant, which procedure was repeated two times. To the supernatant, ½ amount of a solution of phenol/chloroform was added, and the mixture was centrifuged to give a supernatant, which was added with an equal amount of chloroform, and the mixture was centrifuged to give a supernatant. To the supernatant, an equal amount of isopropanol containing 0.3 M sodium acetate was added, and the mixture was allowed to stand at room temperature for 30 minutes, after which the mixture was centrifuged to give a sediment of the whole RNAs. Seventy % ethanol was added to the sediment, and the mixture was again centrifuged to give a sediment, which was then dried and dissolved in water. mRNA was isolated from the whole RNAs as followings. In view of the fact that a poly A chain is attached to the 3′ terminus of mRNA, a polynucleotide having a poly T structure which was immobilized on the surface of latex beads was used to trap the mRNA, and then the mRNA was washed and eluted with spine column (Oligotex-dT30<Super>mRNA Purification Kit, Takara). Reverse transcription of the mRNA was conducted with a reverse transcriptase (Super Script II Reverse Transcriptase; catalogue No. 18064-014, GibcoBRL) using fluorescence-labeled nucleotides to give cDNAs that were introduced with Cy3-dUTP or Cy5-dUTP during the reverse transcription.
The labeled cDNAs were dissolved in TE buffer (10 mM Tris-HCl/1 mM EDTA, pH8.0), and the solution was dropped on the DNA chip containing the whole genes of yeast (DNA Chip Research Inc. Japan) so that the cDNAs were hybridized on the DNA chip at 65° C. for over 12 hours. The fluoresces intensity of the DNA chip was read with a scanner, and the ratio relative to the fluorescence intensity resulting from the absence of chemical substance was estimated as the following, which is shown in Tables 1 to 9: [formula]
In the Tables, “Intensity” indicated in the rightmost column is a value of the level of expressed mRNA of each gene in control cells as divided by the average level of the expressions of the whole genes.

COc1cc(CNC(=O)CCCCC=CC(C)C)ccc1O [(12), 8-methyl-N-vanillyl-6-nonenamide]
The level of expressed mRNA in the presence of chemical substance/absence: YHL006C (gene YHL006C): 1.0 | The level of expressed mRNA in the presence of chemical substance/absence: YHL021C (gene YHL021C): 1.1 | The level of expressed mRNA in the presence of chemical substance/absence: YHL037C (gene YHL037C): 0.6 | level of expressed mRNA in the presence of chemical substance/in its absence (gene YHR037W): 1.1 | The level of expressed mRNA in the presence of chemical substance/absence: YHR083W (gene YHR083W): 0.9 | level of expressed mRNA in the presence of chemical substance/in its absence (gene YHR092C): 1.0 | The level of expressed mRNA in the presence of chemical substance/absence: YHR095W (gene YHR095W): 0.6 | The level of expressed mRNA in the presence of chemical substance/absence: YHR105W (gene YHR105W): 0.7 | The level of expressed mRNA in the presence of chemical substance/absence: YHR134W (gene YHR134W): 1.0 | level of expressed mRNA in the presence of chemical substance/in its absence (gene YHR137W): 0.6 | The level of expressed mRNA in the presence of chemical substance/absence: YHR180W (gene YHR180W): 0.7 | The level of expressed mRNA in the presence of chemical substance/absence: YHR181W (gene YHR181W): 0.8 | level of expressed mRNA in the presence of chemical substance/in its absence (gene YHR190W): 1.1 | level of expressed mRNA in the presence of chemical substance/in its absence (gene YIL033C): 1.1 | The level of expressed mRNA in the presence of chemical substance/absence: YIL108W (gene YIL108W): 0.7 | The level of expressed mRNA in the presence of chemical substance/absence: YIL127C (gene YIL127C): 0.7 | level of expressed mRNA in the presence of chemical substance/in its absence (gene YIL154C): 1.1 | The level of expressed mRNA in the presence of chemical substance/absence: YIL165C (gene YIL165C): 0.9 | level of expressed mRNA in the presence of chemical substance/in its absence (gene YIL167W): 0.7 | level of expressed mRNA in the presence of chemical substance/in its absence (gene YIR035C): 0.9 | The level of expressed mRNA in the presence of chemical substance/absence: YJL017W (gene YJL017W): 1.3 | The level of expressed mRNA in the presence of chemical substance/absence: YJL032W (gene YJL032W): 0.5 | The level of expressed mRNA in the presence of chemical substance/absence: YJL037W (gene YJL037W): 0.8 | The level of expressed mRNA in the presence of chemical substance/absence: YJL049W (gene YJL049W): 0.8 | level of expressed mRNA in the presence of chemical substance/in its absence (gene YJL088W): 0.7 | The level of expressed mRNA in the presence of chemical substance/absence: YJL097W (gene YJL097W): 1.0 | level of expressed mRNA in the presence of chemical substance/in its absence (gene YJL132W): 1.0 | level of expressed mRNA in the presence of chemical substance/in its absence (gene YJL196C): 1.1 | The level of expressed mRNA in the presence of chemical substance/absence: YJR030C (gene YJR030C): 0.9 | The level of expressed mRNA in the presence of chemical substance/absence: YJR044C (gene YJR044C): 0.7 | level of expressed mRNA in the presence of chemical substance/in its absence (gene YJR142W): 0.8 | level of expressed mRNA in the presence of chemical substance/in its absence (gene YJR148W): 0.8 | level of expressed mRNA in the presence of chemical substance/in its absence (gene YJR159W): 1.5 | The level of expressed mRNA in the presence of chemical substance/absence: YKL051W (gene YKL051W): 0.8 | The level of expressed mRNA in the presence of chemical substance/absence: YKL059C (gene YKL059C): 0.9 | level of expressed mRNA in the presence of chemical substance/in its absence (gene YKL067W): 0.9 | The level of expressed mRNA in the presence of chemical substance/absence: YKL090W (gene YKL090W): 0.6 | The level of expressed mRNA in the presence of chemical substance/absence: YKL094W (gene YKL094W): 0.9 | The level of expressed mRNA in the presence of chemical substance/absence: YKL097C (gene YKL097C): 0.6 | The level of expressed mRNA in the presence of chemical substance/absence: YKL100C (gene YKL100C): 0.9 | level of expressed mRNA in the presence of chemical substance/in its absence (gene YKR039W): 1.5 | The level of expressed mRNA in the presence of chemical substance/absence: YKR040C (gene YKR040C): 0.8 | The level of expressed mRNA in the presence of chemical substance/absence: YLR097C (gene YLR097C): 0.8 | level of expressed mRNA in the presence of chemical substance/in its absence (gene YLR142W): 0.8 | level of expressed mRNA in the presence of chemical substance/in its absence (gene YLR180W): 0.6 | The level of expressed mRNA in the presence of chemical substance/absence: YLR226W (gene YLR226W): 0.7 | level of expressed mRNA in the presence of chemical substance/in its absence (gene YLR273C): 0.9 | level of expressed mRNA in the presence of chemical substance/in its absence (gene YLR300W): 0.5 | level of expressed mRNA in the presence of chemical substance/in its absence (gene YLR307W): 0.7 | The level of expressed mRNA in the presence of chemical substance/absence: YLR338W (gene YLR338W): 0.6 | The level of expressed mRNA in the presence of chemical substance/absence: YLR339C (gene YLR339C): 0.6 | The level of expressed mRNA in the presence of chemical substance/absence: YLR392C (gene YLR392C): 0.6 | The level of expressed mRNA in the presence of chemical substance/absence: YLR415C (gene YLR415C): 0.8 | The level of expressed mRNA in the presence of chemical substance/absence: YLR427W (gene YLR427W): 0.9 | The level of expressed mRNA in the presence of chemical substance/absence: YML013W (gene YML013W): 0.9 | The level of expressed mRNA in the presence of chemical substance/absence: YML029W (gene YML029W): 1.1 | The level of expressed mRNA in the presence of chemical substance/absence: YML041C (gene YML041C): 0.8 | The level of expressed mRNA in the presence of chemical substance/absence: YML079W (gene YML079W): 1.1
